Experimental data as given in publication PMC5296257 (Bioorganic & medicinal chemistry letters, 2017).

How the values were obtained:
[1] = tested on: L. amazonensis promastigote form parasites; test: L. amazonensis promastigote viability; format: cell-based; conditions: SI = IMR90 EC50/parasite EC50
[2] = tested on: T. brucei bloodstream form (BSF); test: T. brucei bloodstream form parasite viability; format: cell-based, Trypanosoma brucei; conditions: SI = IMR90 EC50/parasite EC50
[3] = Mammalian cytotoxicity on non-immortalized IMR90 cells; format: cell-based; conditions: human
[4] = tested on: C/EBP-homologous protein (CHOP); conditions: cited from earlier work
[5] = tested on: T. brucei BSF 90-13 parasites; test: Annexin V-FITC labeling; format: cell-based; conditions: BSF trypanosomes, 6 h exposure at compound's EC50 value; control line 463

Row | Structure (SMILES) | L. amazonensis selectivity index, SI [1] | T. brucei selectivity index, SI [2] | EC50 [3] [µM] | mammalian CHOP activity [4] | Annexin-V labeling, relative fluorescence median signal [5]
1 | O=C(Nc1ccc(S(=O)(=O)N2CCOCC2)cc1)c1ccc([N+](=O)[O-])o1 [Compound 1] | > 8 | > 54 | > 25 |  | 
2 | CC1(C)CCN(S(=O)(=O)c2cccc(NC(=O)c3cccc([N+](=O)[O-])c3)c2)CC1 [Compound 28] | > 8 | > 2 | > 25 |  | 
3 | O=C(Nc1ccc(S(=O)(=O)N2CCC(F)CC2)cc1)c1ccc([N+](=O)[O-])o1 [Compound 9] | > 3 | > 60 | > 25 |  | 
4 | N=C1CCN(S(=O)(=O)c2ccc(NC(=O)c3ccc([N+](=O)[O-])o3)cc2)CC1 [Compound 10] | > 2 | > 34 | > 25 |  | 
5 | O=C(Nc1ccc(S(=O)(=O)N2CCOCC2)cc1)c1ccccc1 [Compound 16] |  |  | > 25 |  | 
6 | CC1(C)CCN(S(=O)(=O)c2ccc(NC(=O)c3ccc(C(F)(F)F)o3)cc2)CC1 [Compound 20] | > 2 | > 3 | > 25 | no mammalian CHOP activity | 
7 | CC1(C)CCN(S(=O)(=O)c2cccc(NC(=O)c3ccco3)c2)CC1 [Compound 27] | > 21 | > 5 | > 25 |  | 
8 | CC(C)(C)C1CCN(S(=O)(=O)c2ccc(NC(=O)c3ccc([N+](=O)[O-])o3)cc2)CC1 [Compound 5] | > 18 | > 833 | > 25 |  | 1225
9 | CC1(C)CCN(S(=O)(=O)c2cccc(NC(=O)c3ccc([N+](=O)[O-])o3)c2)CC1 [Compound 26] | > 250 | > 78 | > 25 |  | 
10 | Cc1ccc(C(=O)Nc2ccc(S(=O)(=O)N3CCOCC3)cc2)o1 [Compound 17] |  |  | > 25 |  | 
11 | O=C(Nc1ccc(S(=O)(=O)N2CCC(O)CC2)cc1)c1ccc([N+](=O)[O-])o1 [Compound 7] | > 6 | > 81 | > 25 |  | 
12 | O=C(Nc1ccc(S(=O)(=O)N2CCOCC2)cc1)c1cccs1 [Compound 15] |  |  | > 25 |  | 
13 | CC1(C)CCN(S(=O)(=O)c2ccc(NC(=O)c3cccc([N+](=O)[O-])c3)cc2)CC1 [Compound 19] | > 2 | > 4 | > 25 | no mammalian CHOP activity | 
14 | O=C(Nc1cccc(S(=O)(=O)N2CCOCC2)c1)c1ccc([N+](=O)[O-])o1 [Compound 29] | > 28 | > 17 | > 25 |  | 
15 | O=C(Nc1ccc(S(=O)(=O)N2CCOCC2)cc1)c1ccco1 [Compound 14] |  |  | > 25 |  | 
16 | O=C(Nc1ccc(S(=O)(=O)N2CCOCC2)cc1)c1ccc([N+](=O)[O-])s1 [Compound 21] | > 19 | > 417 | > 25 |  | 
17 | O=C(Nc1ccc(S(=O)(=O)N2CCC(Cl)CC2)cc1)c1ccc([N+](=O)[O-])o1 [Compound 8] | > 3 | > 313 | > 25 |  | 
18 | CC(C)(C)C1CCN(S(=O)(=O)c2ccc(NC(=O)c3ccc([N+](=O)[O-])s3)cc2)CC1 [Compound 23] | > 250 | > 833 | > 25 |  | 
19 | CC1(C)CCN(S(=O)(=O)c2ccc(NC(=O)c3ccc([N+](=O)[O-])s3)cc2)CC1 [Compound 22] | > 250 | > 2500 | > 25 |  | 
20 | CC1(C)CCN(S(=O)(=O)c2ccc(NC(=O)c3ccc([N+](=O)[O-])o3)cc2)CC1 [Compound 4] | > 89 | > 278 | > 25 |  | 
21 | O=C(Nc1ccc(S(=O)(=O)C2=CCOC=C2)cc1)c1ccc([N+](=O)[O-])o1 [Compound 12] | > 83 | > 47 | > 25 |  | 
22 | O=C(Nc1ccc(S(=O)(=O)N2CCCCC2)cc1)c1ccc([N+](=O)[O-])o1 [Compound 2] | > 2 | >114 | > 25 |  | 
23 | O=C(Nc1ccc(S(=O)(=O)N2CCOCC2)cc1)c1ccc([N+](=O)[O-])cc1 [Compound 18] |  |  | > 25 |  | 
24 | O=C(Nc1ccc(S(=O)(=O)N2CCC3(CCCCC3)CC2)cc1)c1ccc([N+](=O)[O-])o1 [Compound 6] | > 17 | > 833 | > 25 |  | 
25 | CC1(C)CCN(S(=O)(=O)c2cccc(NC(=O)c3ccc([N+](=O)[O-])s3)c2)CC1 [Compound 25] | > 19 | > 556 | > 25 |  | 
26 | O=C(Nc1ccc(S(=O)(=O)N2CCC3(CCCCC3)CC2)cc1)c1ccc([N+](=O)[O-])s1 [Compound 24] | > 250 | > 1250 | > 25 |  | 
27 | O=C(Nc1ccc(S(=O)(=O)C2CCCCC2)cc1)c1ccc([N+](=O)[O-])o1 [Compound 11] | > 16 | > 51 | > 25 |  | 
28 | O=C(Nc1ccc(S(=O)(=O)c2ccccc2)cc1)c1ccc([N+](=O)[O-])o1 [Compound 13] | > 6 | > 227 | > 25 |  | 
29 | CC1CCN(S(=O)(=O)c2ccc(NC(=O)c3ccc([N+](=O)[O-])o3)cc2)CC1 [Compound 3] | > 3 | > 208 | > 25 |  | 
